Results published in patent US12269800B2, “Delivery of therapeutic alkaloid compounds” (priority 2021, dated 2025).
Like-named read-outs stand apart in the source and are kept apart here.

How the values were obtained:
[1] = 5 µM
[2] = 5 µM; remark: listed apart in the source
Procedure: 50 uL aliquots of positive controls and test compounds spiked into rat or human plasma (n=2) were added to a pre-warmed plate (37° C.) and shaken at 50 rpm. At each respective time point, the reaction was stopped by adding 500 μL of acetonitrile containing internal standards (100 nM aprozolam, 200 nM caffeine, 100 nM tolbutamide). All samples were vortexed for 10 minutes, followed by centrifugation at 3,220 g for 30 minutes to precipitate proteins. 100 μL of the supernatant is transferred to a new plate. The supernatant will be diluted with ultrapure water according to the LC-MS signal response and peak shape.

Row | SMILES | Rat Plasma Prodrug (%) ([1]; 0 min) | Rat Plasma Prodrug (%) ([1]; 10 min) | Rat Plasma Prodrug (%) ([1]; 30 min) | Rat Plasma Prodrug (%) ([1]; 60 min) | Rat Plasma Prodrug (%) ([1]; 120 min) | Rat Plasma Prodrug (%) ([1]; 240 min) | Human Plasma Prodrug (%) ([2]; 0 min) | Human Plasma Prodrug (%) ([2]; 10 min) | Human Plasma Prodrug (%) ([2]; 30 min) | Human Plasma Prodrug (%) ([2]; 60 min) | Human Plasma Prodrug (%) ([2]; 120 min) | Human Plasma Prodrug (%) ([2]; 240 min)
1 | COc1ccc([C@@]23CCC(OC(=O)CCN)=C[C@@H]2N(C)CC3)cc1OC [Compound 397, (3aS,7aS)-3a-(3,4-dimethoxyphenyl)-1-methyl-2,3,3a,4,5,7a-hexahydro-1H-indol-6-yl 3-aminopropanoate] | 100.0 | 10.5 | 0.5 | 0.1 | 0.1 | 0.1 | 100.0 | 2.2 | 0.5 | 0.1 | 0.2 | 0.0
2 | CCCC(CC)CC(=O)OC1=C[C@@H]2N(C)CC[C@]2(c2ccc(OC)c(OC)c2)CC1 (stereo partly drawn) [Compound 398, (3aS,7aS)-3a-(3,4-dimethoxyphenyl)-1-methyl-2,3,3a,4,5,7a-hexahydro-1H-indol-6-yl 3-ethylhexanoate] | 100.0 | 2.8 | 0.7 | 0.1 | 0.0 | 0.0 | 100.0 | 96.4 | 85.0 | 72.4 | 51.6 | 25.5
3 | COc1ccc([C@@]23CCC(OC(=O)CCC(C)C)=C[C@@H]2N(C)CC3)cc1OC [Compound 399, (3aS,7aS)-3a-(3,4-dimethoxyphenyl)-1-methyl-2,3,3a,4,5,7a-hexahydro-1H-indol-6-yl 4-methylpentanoate] | 100.0 | 0.0 | 0.0 | 0.0 | 0.0 | 0.0 | 100.0 | 5.6 | 1.1 | 0.5 | 0.3 | 0.2
4 | CCCCCC(C)C(=O)OC1=C[C@@H]2N(C)CC[C@]2(c2ccc(OC)c(OC)c2)CC1 (stereo partly drawn) [Compound 400, (3aS,7aS)-3a-(3,4-dimethoxyphenyl)-1-methyl-2,3,3a,4,5,7a-hexahydro-1H-indol-6-yl 2-methylheptanoate] | 100.0 | 12.6 | 0.6 | 0.1 | 0.1 | 0.0 | 100.0 | 34.7 | 11.6 | 5.2 | 2.3 | 1.9
5 | CCCCC(CC)C(=O)OC1=C[C@@H]2N(C)CC[C@]2(c2ccc(OC)c(OC)c2)CC1 (stereo partly drawn) [Compound 401, (3aS,7aS)-3a-(3,4-dimethoxyphenyl)-1-methyl-2,3,3a,4,5,7a-hexahydro-1H-indol-6-yl 2-ethylhexanoate] | 100.0 | 84.5 | 55.8 | 33.8 | 16.3 | 3.3 | 100.0 | 95.9 | >99 | 96.6 | 94.4 | 93.4
6 | CCCC(C)C(=O)OC1=C[C@@H]2N(C)CC[C@]2(c2ccc(OC)c(OC)c2)CC1 (stereo partly drawn) [Compound 402, (3aS,7aS)-3a-(3,4-dimethoxyphenyl)-1-methyl-2,3,3a,4,5,7a-hexahydro-1H-indol-6-yl 2-methylpentanoate] | 100.0 | 3.5 | 0.1 | 0.0 | 0.0 | 0.0 | 100.0 | 11.3 | 2.9 | 2.1 | 1.6 | 1.1
7 | COCCCCC(=O)OC1=C[C@@H]2N(C)CC[C@]2(c2ccc(OC)c(OC)c2)CC1 [Compound 404, (3aS,7aS)-3a-(3,4-dimethoxyphenyl)-1-methyl-2,3,3a,4,5,7a-hexahydro-1H-indol-6-yl 5-methoxypentanoate] | 100.0 | 0.3 | 0.3 | 0.3 | 0.3 | 0.2 | 100.0 | 22.9 | 11.5 | 7.6 | 3.8 | 1.6
8 | COCCOCCC(=O)OC1=C[C@@H]2N(C)CC[C@]2(c2ccc(OC)c(OC)c2)CC1 [Compound 405, (3aS,7aS)-3a-(3,4-dimethoxyphenyl)-1-methyl-2,3,3a,4,5,7a-hexahydro-1H-indol-6-yl 3-(2-methoxyethoxy)propanoate] | 100.0 | 0.1 | 0.0 | 0.1 | 0.0 | 0.0 | 100.0 | >99 | 95.0 | 87.0 | 65.7 | 46.7
9 | CCC(C)C(=O)OC1=C[C@@H]2N(C)CC[C@]2(c2ccc(OC)c(OC)c2)CC1 (stereo partly drawn) [Compound 425, (3aS,7aS)-3a-(3,4-dimethoxyphenyl)-1-methyl-2,3,3a,4,5,7a-hexahydro-1H-indol-6-yl 2-methylbutanoate] | 100.0 | 4.4 | 0.1 | 0.0 | 0.0 | 0.0 | 100.0 | 6.5 | 4.8 | 4.0 | 3.0 | 1.9
10 | CCC(CC)C(=O)OC1=C[C@@H]2N(C)CC[C@]2(c2ccc(OC)c(OC)c2)CC1 [Compound 426, (3aS,7aS)-3a-(3,4-dimethoxyphenyl)-1-methyl-2,3,3a,4,5,7a-hexahydro-1H-indol-6-yl 2-ethylbutanoate] | 100.0 | 70.2 | 33.2 | 9.5 | 0.9 | 0.1 | 100.0 | 87.1 | 80.3 | 79.2 | 73.6 | 66.4
